Data on three compounds can be found in patent US8846750B2, “Pharmaceutical and food compositions for preventing or treating diabetes or obesity” (Korea Ocean Research and Development Institute, priority 2010, dated 2014).

Assay [1] addresses T1, PTP-1b (protein tyrosine phosphatase-1b) (Homo sapiens, UniProt P18031).
T1 construct: purchased Bioneer, Korea
T1 sequence (P18031 1-435): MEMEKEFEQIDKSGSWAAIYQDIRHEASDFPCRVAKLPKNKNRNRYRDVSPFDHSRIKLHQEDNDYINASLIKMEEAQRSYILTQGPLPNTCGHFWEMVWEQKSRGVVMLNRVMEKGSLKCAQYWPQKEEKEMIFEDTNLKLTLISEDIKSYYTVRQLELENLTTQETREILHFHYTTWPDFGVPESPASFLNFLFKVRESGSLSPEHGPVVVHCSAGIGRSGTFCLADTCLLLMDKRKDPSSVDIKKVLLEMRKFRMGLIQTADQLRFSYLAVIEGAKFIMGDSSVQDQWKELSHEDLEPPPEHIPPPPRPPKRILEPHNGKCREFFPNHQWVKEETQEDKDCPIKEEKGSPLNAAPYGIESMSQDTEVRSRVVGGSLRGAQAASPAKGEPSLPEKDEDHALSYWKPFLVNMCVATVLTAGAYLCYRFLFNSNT
The assay can be described thus: PTP-1b inhibitory activity, malachite green assay with [pTyr1146] insulin receptor substrate. It is filed as biochemical. Particulars: PTP-1b (Bioneer), absorbance at 620 nm; read-out: IC50 against PTP-1b. The protocol: In order to analyze the PTP-1b (protein tyrosine phosphatase-1b) inhibitory activity of sodium lobarate, the activity of the enzyme was spectroscopically measured.
Specifically, to 0.5 mg/Ml of PTP-1b (Bioneer, Korea) in PTP-1b buffer (20 mM Tris-HCl, pH 8.0, 0.75 mM NaCl, 0.5 mM EDTA, 5 mM β-mercaptoethanol, 50% glycerol), 0, 1, 3, 10, 30, 100, 300, 1,000 and 3,000 nM of sodium lobarate and the substrate [pTyr1146] insulin receptor (1142-1153, Sigma, USA) were added. Each mixture was allowed to react at room temperature for 10-30 minutes, and malachite green-molybdate dye solution was added thereto and reacted at room temperature for 10 minutes. After completion between PTP-1b, sodium lobarate and the substrate, the absorbance at 620 nm was measured.
The activity of the enzyme was spectroscopically measured to analyze the protein PTP-1b inhibitory activity of Lobarin.
Specifically, to 0.5 mg/Ml of PTP-1b (Bioneer, Korea) in PTP-1b buffer (20 mM Tris-HCL, pH 8.0, 0.75 mM NaCl, 0.5 mM EDTA, 5 mM β-mercaptoethanol, 50% glycerol), 0, 1, 3, 10, 30, 100, 300, 1000 or 3000 nM Lobarin and the substrate [pTyr1146] insulin receptor (1142-1153, Sigma, USA) were added. Each of the mixtures was allowed to react at room temperature for 10-30 minutes, and malachite green-molybdate dye solution was added thereto and reacted at room temperature for 10 minutes. After completion between PTP-1b, Lobarin and the substrate, the absorbance at 620 nm was measured.
The activity of the enzyme was spectroscopically measured to analyze the protein PTP-1b inhibitory activity of Lobarstin. Specifically, to 0.5 mg/Ml of PTP-1b (Bioneer, Korea) in PTP-1b buffer (20 mM Tris-HCL, pH 8.0, 0.75 mM NaCl, 0.5 mM EDTA, 5 mM β-mercaptoethanol, 50% glycerol), 0, 1, 3, 10, 30, 100, 300, 1000 or 3000 nM Lobarstin and the substrate [pTyr1146] insulin receptor (1142-1153, Sigma, USA) were added. […] After completion between PTP-1b, Lobarstin and the substrate, the absorbance at 620 nm was measured.

The test system of assay [2] is db/db mice (type 2 diabetic model animals). The assay can be described thus: Intraperitoneal glucose tolerance test (IPGTT) 28 days after intraperitoneal administration. It is filed as in vivo. The settings on record: 10 mg/kg i.p. for 28 days; for blood glucose level after injection of glucose (IPGTT): fasted 16 hours; for course of blood glucose level in IPGTT: versus control group. The protocol: An intraperitoneal glucose tolerance test (IPGTT) in the animal model of sodium lobarate was performed in the following manner.
To 7-week-old male db/db mice (type 2 diabetic model animals, C57/BLKS/J-db/db, the Korea Research Institute of Bioscience and Biotechnology), physiological saline for a control group and 10 mg/kg of sodium lobarate for a test group was injected, respectively, intraperitoneally every day for 28 days. Then, the animals were fasted for 16 hours without administering physiological saline or sodium lobarate, after which glucose (500 mg/Ml; injection volume of […]) was injected intraperitoneally into the animals. 0, 15, 30, 60, 90 and 120 min after injection of glucose, blood was sampled from the tail vein, and the changes in the blood glucose levels of the samples were measured. […]
(§1) To 7-week-old male db/db mice (type 2 diabetic model animals, C57/BLKS/J-db/db, the Korea Research Institute of Bioscience and Biotechnology), 20% DMSO for a control group and 10 mg/kg of Lobarin for a test group was injected, respectively, intraperitoneally every day for 28 days. Then, the animals were fasted for 16 hours without administering 20% DMSO or Lobarin for each group, after which glucose (500 mg/Ml; injection volume of 200 μl) was injected intraperitoneally into the animals. 0, 15, 30, 60, 90 and 120 min after injection of glucose, blood was sampled from the tail vein, and the changes in the blood glucose levels of the samples were measured.
as §1, with “Lobarstin” for “Lobarin”, “physiological saline and Lobarstin,” for “20% DMSO or Lobarin for each group,”

Where “and” joins values, the source holds several entries; their conditions need not be identical. Equal values may be shown once.

With `CCC/C=C1/OC(=O)c2c(Oc3c(O)cc(O)c(C(=O)O)c3CCCCC)cc(OC)cc21` [Lobarstin], in assay [1], the IC50 (in general, the concentration that gives 50% inhibition) was found to be 155 nM. Moreover, the “blood glucose level after injection of glucose (IPGTT)” value (“blood glucose level after injection” below) in assay [2] (0 min) came to 152 mg/dL; in assay [2] (15 min) it was 229 mg/dL; in assay [2] (30 min) it was 307 mg/dL; in assay [2] (60 min), 205 mg/dL; in assay [2] (90 min) it was 162 mg/dL; in assay [2] (120 min), 147 mg/dL. The “course of blood glucose level in IPGTT” value in assay [2] was “a low increase and a fast decrease in the blood glucose level”.
Turning to `CCCCCc1c(Oc2cc(OC)cc3c2C(=O)OC3(O)CCCC)c(O)cc(O)c1C(=O)O` (stereo not drawn) [Lobarin], in assay [1], the IC50 was 149 nM and 155 nM. The “blood glucose level after injection” value in assay [2] (0 min) stood at 153 mg/dL; in assay [2] (15 min) it was 358 mg/dL; in assay [2] (30 min), 436 mg/dL; in assay [2] (60 min) it was 390 mg/dL; in assay [2] (90 min), 335 mg/dL; in assay [2] (120 min), 290 mg/dL. Also, the “course of blood glucose level in IPGTT” value in assay [2] was “a low increase and a fast decrease in the blood glucose level”.
`CCCCCc1c2c(cc(O)c1C(=O)[O-])OC(=O)c1c(cc(OC)cc1C(=O)CCCC)O2.[Na+]` [sodium lobarate]: the IC50 in assay [1] turned out to be 350 nM. In addition, the “blood glucose level after injection” value is 153 mg/dL in assay [2] (0 min); 291 mg/dL in assay [2] (15 min); 361 mg/dL in assay [2] (30 min); 385 mg/dL in assay [2] (60 min); 335 mg/dL in assay [2] (90 min); 290 mg/dL in assay [2] (120 min). In addition, the “course of blood glucose level in IPGTT” value in assay [2] is “a low increase and a fast decrease in the blood glucose level”.
